From patent US12692268B2 (priority 2020, dated 2026)
Like-named read-outs stand apart in the source and are kept apart here. Each block holds one compound with its values, some of them ahead of it.

Columns and labels:
JNK3 [1] = target: T1, JNK3 (Homo sapiens, UniProt P53779); assay: biochemical
JNK2 = JNK2 (Homo sapiens, UniProt P45984); assay: Kinase panel screening, single dose 10 μM; format: biochemical; settings: single dose concentration of 10 μM; read-out: inhibitory activity for JNK2
JNK3 [2] = target: T1, JNK3; assay: Kinase panel screening, single dose 10 μM; format: biochemical; settings: single dose concentration of 10 μM; read-out: inhibitory activity for JNK3
GSK-β = GSK-β (Homo sapiens, UniProt P49841); assay: Kinase panel screening, single dose 10 μM; format: biochemical; settings: single dose concentration of 10 μM; read-out: inhibitory activity for GSK-β
RIPK3 = RIPK3 (Homo sapiens, UniProt Q9Y572); assay: Kinase panel screening, single dose 10 μM; format: biochemical; settings: single dose concentration of 10 μM; read-out: inhibitory activity for RIPK3
Sequence of RIPK3 (Q9Y572 whole entry, species assumed): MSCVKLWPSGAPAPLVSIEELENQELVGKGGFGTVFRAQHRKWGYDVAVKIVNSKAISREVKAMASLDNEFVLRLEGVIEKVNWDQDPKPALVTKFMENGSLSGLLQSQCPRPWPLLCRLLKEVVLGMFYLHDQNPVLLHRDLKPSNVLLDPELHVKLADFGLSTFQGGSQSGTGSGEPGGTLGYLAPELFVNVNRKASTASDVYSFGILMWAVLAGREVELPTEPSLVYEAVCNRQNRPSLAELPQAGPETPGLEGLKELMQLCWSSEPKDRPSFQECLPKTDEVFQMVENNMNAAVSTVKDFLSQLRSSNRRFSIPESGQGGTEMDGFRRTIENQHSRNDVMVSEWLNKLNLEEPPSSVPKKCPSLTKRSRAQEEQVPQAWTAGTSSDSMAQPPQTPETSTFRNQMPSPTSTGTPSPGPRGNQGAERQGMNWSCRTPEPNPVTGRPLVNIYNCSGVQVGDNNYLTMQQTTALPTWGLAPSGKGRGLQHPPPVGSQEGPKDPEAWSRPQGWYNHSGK

T1 sequence (P53779 whole entry): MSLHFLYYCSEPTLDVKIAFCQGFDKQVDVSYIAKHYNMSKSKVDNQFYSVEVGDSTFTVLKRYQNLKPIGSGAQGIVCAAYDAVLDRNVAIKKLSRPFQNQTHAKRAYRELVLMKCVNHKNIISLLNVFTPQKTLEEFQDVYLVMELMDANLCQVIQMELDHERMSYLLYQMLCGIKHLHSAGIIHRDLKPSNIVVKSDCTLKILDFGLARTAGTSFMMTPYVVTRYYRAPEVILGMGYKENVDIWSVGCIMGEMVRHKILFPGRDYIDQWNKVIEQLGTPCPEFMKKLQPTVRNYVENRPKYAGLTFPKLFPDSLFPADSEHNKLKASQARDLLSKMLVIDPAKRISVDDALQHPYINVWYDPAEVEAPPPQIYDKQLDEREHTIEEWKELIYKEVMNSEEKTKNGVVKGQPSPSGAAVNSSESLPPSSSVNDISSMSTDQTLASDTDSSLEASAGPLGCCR
Sequence of JNK2 (P45984 whole entry, species assumed): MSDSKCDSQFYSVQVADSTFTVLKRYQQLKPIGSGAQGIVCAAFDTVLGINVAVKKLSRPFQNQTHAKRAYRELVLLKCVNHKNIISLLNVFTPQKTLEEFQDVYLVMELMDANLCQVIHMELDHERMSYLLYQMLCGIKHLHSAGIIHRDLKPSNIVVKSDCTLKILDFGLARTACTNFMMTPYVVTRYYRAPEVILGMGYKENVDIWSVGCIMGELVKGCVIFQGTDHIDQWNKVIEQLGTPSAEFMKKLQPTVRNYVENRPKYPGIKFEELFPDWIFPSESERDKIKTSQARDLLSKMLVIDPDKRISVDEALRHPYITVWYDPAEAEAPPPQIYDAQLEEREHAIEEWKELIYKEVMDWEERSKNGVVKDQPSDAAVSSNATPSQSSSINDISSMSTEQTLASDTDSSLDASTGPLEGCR
Sequence of GSK-β (P49841 whole entry): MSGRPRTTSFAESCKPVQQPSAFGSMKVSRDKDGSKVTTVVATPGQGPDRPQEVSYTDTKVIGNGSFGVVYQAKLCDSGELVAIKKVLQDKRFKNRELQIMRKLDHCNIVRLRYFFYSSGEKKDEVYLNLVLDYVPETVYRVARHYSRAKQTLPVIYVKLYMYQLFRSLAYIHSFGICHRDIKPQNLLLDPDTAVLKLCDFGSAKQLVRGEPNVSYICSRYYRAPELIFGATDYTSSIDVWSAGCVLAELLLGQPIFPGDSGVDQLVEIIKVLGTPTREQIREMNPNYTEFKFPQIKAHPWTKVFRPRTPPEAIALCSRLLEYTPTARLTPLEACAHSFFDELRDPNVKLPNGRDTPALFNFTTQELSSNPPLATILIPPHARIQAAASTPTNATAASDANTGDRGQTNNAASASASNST

SMILES: O=C(C1CC1)N1CCC[C@H](Nc2nccc(-n3c(-c4ccc(Cl)c(Cl)c4)nc4c3CN(C(=O)N3CCC(O)CC3)C4)n2)C1 [Compound 16a, (S)-(1-(2-((1-(cyclopropanecarbonyl)piperidin-3-yl)amino)pyrimidin-4-yl)-2-(3,4-dichlorophenyl)-4,6-dihydropyrrolo[3,4-d]imidazol-5(1H)-yl)(4-hydroxypiperidin-1-yl)methanone]
- IC50 (JNK3 [1]): < 30 nM

- IC50 (JNK3 [1]; JNK3 enzyme activity, Table 1, read-out: IC50): < 30 nM
SMILES: NC(=O)N1Cc2nc(-c3ccc(Cl)c(Cl)c3)n(-c3ccnc(N[C@H]4CCCN(C(=O)C5CC5)C4)n3)c2C1 [Compound 16b, (S)-1-(2-((1-(cyclopropanecarbonyl)piperidin-3-yl)amino)pyrimidin-4-yl)-2-(3,4-dichlorophenyl)-4,6-dihydropyrrolo[3,4-d]imidazole-5(1H)-carboxamide]

- inhibition at 10 µM (JNK2): 100%
- inhibition at 10 µM (JNK3 [2]): 100%
- inhibition at 10 µM (GSK-β): 70%
- inhibition at 10 µM (RIPK3): 50%
SMILES: NC(=O)N1Cc2nc(-c3ccc(Cl)c(Cl)c3)n(-c3ccnc(N[C@@H]4CCN(C(=O)C5CC5)C4)n3)c2C1 [Compound 16c, (R)-1-(2-((1-(cyclopropanecarbonyl)pyrrolidin-3-yl)amino)pyrimidin-4-yl)-2-(3,4-dichlorophenyl)-4,6-dihydropyrrolo[3,4-d]imidazole-5(1H)-carboxamide]

- IC50 (JNK3 [1]; JNK3 enzyme activity, Table 2, read-out: IC50): 100 to 10000 nM
SMILES: NC(=O)N1Cc2nc(-c3ccc4c(c3)OCO4)n(-c3ccnc(N[C@H]4CCCN(C(=O)C5CCC5)C4)n3)c2C1 [Compound 16m, (S)-2-(benzo[d][1,3]dioxol-5-yl)-1-(2-((1-(cyclobutanecarbonyl)piperidin-3-yl)amino)pyrimidin-4-yl)-4,6-dihydropyrrolo[3,4-d]imidazole-5(1H)-carboxamide]
